Activity calls are given as the source filed them. No cut-off for these calls is given here.
Experiments:
[1] = test system: LoVo; test: Cytotoxicity against human LoVo cells at 10 ug/mL; assay type: functional, cell-based
[2] = test system: KB; test: Cytotoxicity against human KB cells at 10 ug/mL; assay type: functional, cell-based

C#CCCC[C@H]1OC(=O)[C@H]([C@@H](C)CC)NC(=O)[C@@H]2CCCN2C(=O)[C@H](Cc2ccccc2)OC(=O)[C@H](C(C)C)N(C)C(=O)[C@H](C(C)C)NC(=O)[C@H]1C
Activity [1]: inactive | Activity [2]: inactive
